Test in all cases: biochemical
One assay addresses T1, MMP-1 (Homo sapiens, UniProt P03956).
T1 construct: made in house; host or cells: transfected HT-1080 cells (provided by Dr. Harold Welgus, Washington University)
T1 sequence (P03956 100-469): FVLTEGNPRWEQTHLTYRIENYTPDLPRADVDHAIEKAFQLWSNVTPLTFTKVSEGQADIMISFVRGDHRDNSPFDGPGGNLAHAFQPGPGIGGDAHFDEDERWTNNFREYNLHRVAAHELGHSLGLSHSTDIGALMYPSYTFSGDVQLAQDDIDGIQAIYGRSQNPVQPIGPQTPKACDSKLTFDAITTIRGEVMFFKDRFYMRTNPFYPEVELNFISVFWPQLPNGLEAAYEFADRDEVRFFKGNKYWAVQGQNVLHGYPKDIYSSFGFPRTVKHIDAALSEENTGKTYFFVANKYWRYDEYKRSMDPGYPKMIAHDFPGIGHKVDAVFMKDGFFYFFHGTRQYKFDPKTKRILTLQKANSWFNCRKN
To be noted: recombinant human MMP-1, MCA peptide substrate 4 μM, pH 7.5, room temperature; read-out: MMP-1 IC50. The method in brief: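 APMA- or trypsin-activated enzymes were preincubated with inhibitor for 5 min at room temperature, then the fluorogenic substrate MCA-Pro-Leu-Gly-Leu-Dpa-Ala-Arg-NH2 was added to a final 4 μM.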

The target of a further assay is T2, MMP-13 (Homo sapiens, UniProt P45452).
T2 construct: made in house; host or cells: baculovirus / insect cells
Particulars: recombinant human MMP-13, MCA peptide substrate 4 μM, pH 7.5, room temperature; read-out: MMP-13 IC50. The procedure, abridged: (§1)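 Assay buffer 100 mM Tris-HCl, 100 mM NaCl, 10 mM CaCl2, pH 7.5. Activated MMP + inhibitor, 5 min RT; then methoxycoumarin peptide substrate, 4 μM final. Readout fluorescence; IC50 calculated.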

A further assay concerns the target T3, MMP-2 (Homo sapiens, UniProt P08253).
T3 construct: made in house; provided by Dr. Gregory Goldberg, Washington University
T3 sequence (P08253 110-660): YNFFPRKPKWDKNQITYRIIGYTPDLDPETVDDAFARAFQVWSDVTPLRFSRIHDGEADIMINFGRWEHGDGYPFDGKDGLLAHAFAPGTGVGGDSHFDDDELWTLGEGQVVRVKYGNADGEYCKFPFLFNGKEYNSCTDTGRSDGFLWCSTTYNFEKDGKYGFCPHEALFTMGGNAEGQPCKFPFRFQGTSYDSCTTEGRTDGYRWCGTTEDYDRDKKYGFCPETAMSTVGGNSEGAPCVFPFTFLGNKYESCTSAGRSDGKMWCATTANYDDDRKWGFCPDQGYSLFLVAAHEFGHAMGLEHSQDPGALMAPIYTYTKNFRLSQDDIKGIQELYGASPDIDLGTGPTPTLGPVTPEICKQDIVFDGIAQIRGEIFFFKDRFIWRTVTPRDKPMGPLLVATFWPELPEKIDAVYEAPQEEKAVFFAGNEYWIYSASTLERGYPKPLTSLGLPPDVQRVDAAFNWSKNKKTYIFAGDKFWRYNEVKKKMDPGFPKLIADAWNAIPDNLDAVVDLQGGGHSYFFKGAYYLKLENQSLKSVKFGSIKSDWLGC
To be noted: recombinant human MMP-2, MCA peptide substrate 4 μM, pH 7.5, room temperature; read-out: MMP-2 IC50. The procedure, abridged:
as §1

One may read the IC50 as the point on the concentration scale where inhibition reaches its midpoint.

Where only a bound is given, the exact number is not on record here.

On to `C[C@@H]1C[C@H](C)CN(C(=O)C2CCN(c3ccc(S(=O)(=O)C4(C(=O)NO)CCN(C(=O)CCl)CC4)cc3)CC2)C1` [Example 276], for which the IC50 at MMP-1 is greater than 10 µM; at MMP-13 it was 0.0373 µM; on MMP-2, greater than 10 µM.
Take `CCNCC(=O)N1CCC(C(=O)NO)(S(=O)(=O)c2ccc(N3CCC(C(=O)N4CC(C)CC(C)C4)CC3)cc2)CC1` (stereo not drawn) [Example 277]: the IC50 on MMP-1 is greater than 10 µM; at MMP-13 it was 0.07 µM; on MMP-2 it was greater than 10 µM.
`CC1CC(C)CN(C(=O)C2CCN(c3ccc(S(=O)(=O)C4(C(=O)NO)CCN(C(=O)CNCc5cccnc5)CC4)cc3)CC2)C1` (stereo not drawn) [Example 278]: the IC50 at MMP-1 was greater than 10 µM; on MMP-13, 0.0193 µM; at MMP-2, greater than 10 µM.
Regarding `CC1CC(C)CN(C(=O)C2CCN(c3ccc(S(=O)(=O)C4(C(=O)NO)CCN(C(=O)Cn5ccnc5)CC4)cc3)CC2)C1` (stereo not drawn) [Example 279], the concentration for half-maximal inhibition (IC50) at MMP-1 was greater than 10 µM; on MMP-13 it was 0.02 µM; on MMP-2 it was 7.3 µM.
On to `CC1CC(C)CN(C(=O)C2CCN(c3ccc(S(=O)(=O)C4(C(=O)NO)CCN(C(=O)CNCCCO)CC4)cc3)CC2)C1` (stereo not drawn) [Example 280], for which the IC50 on MMP-1 was greater than 10 µM; on MMP-13, 0.09 µM; on MMP-2 it was greater than 10 µM.
Consider `CC1CC(C)CN(C(=O)C2CCN(c3ccc(S(=O)(=O)C4(C(=O)NO)CCN(C(=O)CNCCc5c[nH]cn5)CC4)cc3)CC2)C1` (stereo not drawn) [Example 281], for which the IC50 on MMP-1 was greater than 10 µM; at MMP-13, 0.105 µM; at MMP-2, greater than 10 µM.
Consider `CC1CC(C)CN(C(=O)C2CCN(c3ccc(S(=O)(=O)C4(C(=O)NO)CCN(C(=O)CNCc5cccs5)CC4)cc3)CC2)C1` (stereo not drawn) [Example 282], for which the IC50 at MMP-1 is greater than 10 µM; on MMP-13, 0.0148 µM; on MMP-2 it was 9 µM.
For `CC1CC(C)CN(C(=O)C2CCN(c3ccc(S(=O)(=O)C4(C(=O)NO)CCN(C(=O)CN5CCOCC5)CC4)cc3)CC2)C1` (stereo not drawn) [Example 283], in that order: greater than 10 µM, 0.0138 µM and greater than 10 µM.
For `CC1CC(C)CN(C(=O)C2CCN(c3ccc(S(=O)(=O)C4(C(=O)NO)CCN(C(=O)CNCc5ccccn5)CC4)cc3)CC2)C1` (stereo not drawn) [Example 284], in that order: greater than 10 µM, 0.13 µM and greater than 10 µM.
Take `CC1CC(C)CN(C(=O)C2CCN(c3ccc(S(=O)(=O)C4(C(=O)NO)CCN(C(=O)CNCc5ccncc5)CC4)cc3)CC2)C1` (stereo not drawn) [Example 285]: the IC50 on MMP-1 is greater than 10 µM; at MMP-13, 0.0193 µM; at MMP-2, 9 µM.
Taken in the same sequence, the figures for `CC1CC(C)CN(C(=O)C2CCN(c3ccc(S(=O)(=O)C4(C(=O)NO)CCN(C(=O)CNCCO)CC4)cc3)CC2)C1` (stereo not drawn) [Example 286] were greater than 10 µM, 0.06 µM and greater than 10 µM.
In the case of `CC1CC(C)CN(C(=O)C2CCN(c3ccc(S(=O)(=O)C4(C(=O)NO)CCN(C(=O)CN(C)CCN(C)C)CC4)cc3)CC2)C1` (stereo not drawn) [Example 287], the IC50 is greater than 10 µM on MMP-1, 0.15 µM at MMP-13 and greater than 10 µM on MMP-2.
On to `CC1CC(C)CN(C(=O)C2CCN(c3ccc(S(=O)(=O)C4(C(=O)NO)CCN(C(=O)CN5CCN(C)CC5)CC4)cc3)CC2)C1` (stereo not drawn) [Example 288], for which the half-maximal inhibitory concentration (IC50) at MMP-1 was greater than 10 µM; at MMP-13, 0.035 µM; at MMP-2, greater than 10 µM.
On to `CC1CC(C)CN(C(=O)C2CCN(c3ccc(S(=O)(=O)C4(C(=O)NO)CCN(C(=O)CNCCN(C)C)CC4)cc3)CC2)C1` (stereo not drawn) [Example 289], for which the half-maximal inhibitory concentration (IC50) was greater than 10 µM on MMP-1, 0.05 µM at MMP-13 and greater than 10 µM on MMP-2.
Consider `CC1CC(C)CN(C(=O)C2CCN(c3ccc(S(=O)(=O)C4(C(=O)NO)CCN(C(=O)CN5CCNCC5)CC4)cc3)CC2)C1` (stereo not drawn) [Example 290], for which the results for the IC50 at MMP-1, at MMP-13 and at MMP-2 were greater than 10 µM, 0.05 µM and greater than 10 µM, respectively.
On to `CCCN(CC(=O)N1CCC(C(=O)NO)(S(=O)(=O)c2ccc(N3CCC(C(=O)N4CC(C)CC(C)C4)CC3)cc2)CC1)CC1CC1` (stereo not drawn) [Example 292], for which the IC50 on MMP-1 was greater than 10 µM; on MMP-13, 0.1 µM; at MMP-2, greater than 10 µM.
Take `CC1CC(C)CN(C(=O)C2CCN(c3ccc(S(=O)(=O)C4(C(=O)NO)CCN(C(=O)CNCC5CC5)CC4)cc3)CC2)C1` (stereo not drawn) [Example 293]: the IC50 was greater than 10 µM at MMP-1, 0.0631 µM on MMP-13 and greater than 10 µM on MMP-2.
Regarding `CC1CC(C)CN(C(=O)C2CCN(c3ccc(S(=O)(=O)C4(C(=O)NO)CCN(C(=O)CN(C)C)CC4)cc3)CC2)C1` (stereo not drawn) [Example 294], the half-maximal inhibitory concentration (IC50) was greater than 1 µM at MMP-1, 0.0591 µM at MMP-13 and greater than 10 µM on MMP-2.
Taken in the same sequence, the figures for `CCN(CC)CC(=O)N1CCC(C(=O)NO)(S(=O)(=O)c2ccc(N3CCC(C(=O)N4CC(C)CC(C)C4)CC3)cc2)CC1` (stereo not drawn) [Example 295] were greater than 10 µM, 0.05 µM and greater than 10 µM.
Regarding `CC1CC(C)CN(C(=O)C2CCN(c3ccc(S(=O)(=O)C4(C(=O)NO)CCN(C(=O)CN5CCCCC5)CC4)cc3)CC2)C1` (stereo not drawn) [Example 296], the figures for the IC50 at MMP-1, at MMP-13 and at MMP-2 were greater than 10 µM, 0.05 µM and greater than 10 µM, respectively.
Take `CC1CC(C)CN(C(=O)C2CCN(c3ccc(S(=O)(=O)C4(C(=O)NO)CCN(C(=O)CN5CCCC5CO)CC4)cc3)CC2)C1` (stereo not drawn) [Example 297]: the IC50 at MMP-1 is greater than 10 µM; on MMP-13 it was 0.0349 µM; at MMP-2, greater than 10 µM.
In the case of `CC1CC(C)CN(C(=O)C2CCN(c3ccc(S(=O)(=O)C4(C(=O)NO)CCN(C(=O)CN5CCCC5)CC4)cc3)CC2)C1` (stereo not drawn) [Example 298], the IC50 is greater than 10 µM on MMP-1, 0.04 µM on MMP-13 and greater than 10 µM on MMP-2.
In the case of `CC1CC(C)CN(C(=O)C2CCN(c3ccc(S(=O)(=O)C4(C(=O)NO)CCN(C(=O)CN5CCN(CCOCCO)CC5)CC4)cc3)CC2)C1` (stereo not drawn) [Example 299], the concentration for half-maximal inhibition (IC50) on MMP-1 was greater than 10 µM; at MMP-13 it was 0.0306 µM; at MMP-2, 9 µM.
For `CC1CC(C)CN(C(=O)C2CCN(c3ccc(S(=O)(=O)C4(C(=O)NO)CCN(C(=O)CN5CCC(C(N)=O)CC5)CC4)cc3)CC2)C1` (stereo not drawn) [Example 300], the values for the IC50 on MMP-1, at MMP-13 and on MMP-2 were greater than 10 µM, 0.0373 µM and greater than 10 µM, respectively.
In the case of `CC1CC(C)CN(C(=O)C2CCN(c3ccc(S(=O)(=O)C4(C(=O)NO)CCN(C(=O)CNCCOCCO)CC4)cc3)CC2)C1` (stereo not drawn) [Example 301], the values for the IC50 at MMP-1, on MMP-13 and on MMP-2 were greater than 10 µM, 0.09 µM and greater than 10 µM, respectively.
`CC1CC(C)CN(C(=O)C2CCN(c3ccc(S(=O)(=O)C4(C(=O)NO)CCN(C(=O)CN(CCCN(C)C)CCCN(C)C)CC4)cc3)CC2)C1` (stereo not drawn) [Example 302]: the IC50 was greater than 10 µM on MMP-1, 0.175 µM at MMP-13 and greater than 10 µM at MMP-2.
Take `COCCN(CCOC)CC(=O)N1CCC(C(=O)NO)(S(=O)(=O)c2ccc(N3CCC(C(=O)N4CC(C)CC(C)C4)CC3)cc2)CC1` (stereo not drawn) [Example 303]: the IC50 is greater than 10 µM on MMP-1, 0.115 µM at MMP-13 and greater than 10 µM at MMP-2.
On to `CC1CC(C)CN(C(=O)C2CCN(c3ccc(S(=O)(=O)C4(C(=O)NO)CCN(C(=O)CN5CCC(O)CC5)CC4)cc3)CC2)C1` (stereo not drawn) [Example 304], for which the IC50 is greater than 10 µM at MMP-1, 0.0306 µM at MMP-13 and 7 µM at MMP-2.
On to `CCOC(=O)CN1CCN(CC(=O)N2CCC(C(=O)NO)(S(=O)(=O)c3ccc(N4CCC(C(=O)N5CC(C)CC(C)C5)CC4)cc3)CC2)CC1` (stereo not drawn) [Example 305], for which the IC50 was greater than 10 µM on MMP-1, 0.0286 µM at MMP-13 and greater than 10 µM on MMP-2.
Turning to `CC1CC(C)CN(C(=O)C2CCN(c3ccc(S(=O)(=O)C4(C(=O)NO)CCN(C(=O)CN5CCN(CCN6CCOCC6)CC5)CC4)cc3)CC2)C1` (stereo not drawn) [Example 306], the IC50 on MMP-1 is greater than 10 µM; on MMP-13, 0.06 µM; at MMP-2 it was greater than 10 µM.
